In publication PMC4551907, “Identification of human telomerase assembly inhibitors enabled by a novel method to produce hTERT” (Nucleic Acids Research, 2015):

Key:
hTERT [1] = target: T1, hTERT (Homo sapiens, UniProt O14746); test: RT-TRAP with recombinant telomerase ([…]); format: biochemical; set-up: gene TERT
hTERT [2] = target: T1, hTERT; test: RT-TRAP and direct telomerase assay with reconstituted purified hTERT + hTR; preincubation with hTERT vs hTR; dilution (reversibility) test; format: biochemical; set-up: gene TERT; MBP-hTERT, purified from P. pastoris

T1 sequence (O14746 whole entry): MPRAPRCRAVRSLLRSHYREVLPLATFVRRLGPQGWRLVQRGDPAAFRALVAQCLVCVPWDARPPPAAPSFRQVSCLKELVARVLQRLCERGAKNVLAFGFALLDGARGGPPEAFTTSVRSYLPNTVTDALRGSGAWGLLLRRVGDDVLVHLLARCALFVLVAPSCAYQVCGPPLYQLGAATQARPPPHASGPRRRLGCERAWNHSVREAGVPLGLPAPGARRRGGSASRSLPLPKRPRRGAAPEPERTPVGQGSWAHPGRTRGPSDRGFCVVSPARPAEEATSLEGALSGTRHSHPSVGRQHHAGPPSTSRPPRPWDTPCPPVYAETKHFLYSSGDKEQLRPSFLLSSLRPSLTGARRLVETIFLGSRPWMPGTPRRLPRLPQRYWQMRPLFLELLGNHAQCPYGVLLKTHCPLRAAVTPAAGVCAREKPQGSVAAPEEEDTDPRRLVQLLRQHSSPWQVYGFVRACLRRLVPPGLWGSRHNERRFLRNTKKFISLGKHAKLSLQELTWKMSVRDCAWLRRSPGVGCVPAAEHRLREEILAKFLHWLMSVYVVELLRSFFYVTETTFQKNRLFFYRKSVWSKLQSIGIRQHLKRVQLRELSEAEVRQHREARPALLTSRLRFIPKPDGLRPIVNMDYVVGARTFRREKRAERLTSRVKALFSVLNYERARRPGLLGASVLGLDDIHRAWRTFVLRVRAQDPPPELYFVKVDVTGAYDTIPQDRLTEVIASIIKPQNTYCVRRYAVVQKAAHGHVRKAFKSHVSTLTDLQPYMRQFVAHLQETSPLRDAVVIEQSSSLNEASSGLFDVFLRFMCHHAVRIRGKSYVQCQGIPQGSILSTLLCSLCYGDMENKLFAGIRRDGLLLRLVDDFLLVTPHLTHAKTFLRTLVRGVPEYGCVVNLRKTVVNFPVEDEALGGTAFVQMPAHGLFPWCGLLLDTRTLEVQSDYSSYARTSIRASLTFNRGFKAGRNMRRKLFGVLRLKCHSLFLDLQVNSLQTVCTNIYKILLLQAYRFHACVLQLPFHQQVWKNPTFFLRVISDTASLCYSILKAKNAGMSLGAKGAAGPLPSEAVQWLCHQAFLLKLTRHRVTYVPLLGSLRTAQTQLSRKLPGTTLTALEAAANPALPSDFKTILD

| SMILES | IC50 (hTERT [1]) | IC50 (hTERT [2]) |
| --- | --- | --- |
| C/C(=C\C(=O)Nc1ccccc1C(=O)O)c1ccc2ccccc2c1 [BIBR1532] | ~80 nM |  |
| NC1CC(N)C(O[C@H]2O[C@H](CNC(=O)[C@@H](N)CCCCNCc3ccc4nc5ccc6nc7ccccc7cc6c5cc4c3)[C@@H](O)C[C@H]2N)C(O)C1O[C@H]1O[C@H](CO)[C@@H](O)[C@H](N)[C@H]1O (some centres unmarked) [TAI1] |  | 500 ± 200 nM |
